Measured values published in patent US6620828B2, “Thiazole compounds and pharmaceutical compositions for inhibiting protein kinases and methods for their use” (Agouron Pharmaceuticals, Inc., priority 1999, dated 2003).

Experiments:
LCK tyrosine kinase = target: T1, LCK tyrosine kinase (Homo sapiens, UniProt P06239, C224D/P223M); experiment: LCK spectrophotometric assay; type: biochemical; settings: Table 2; for LCK % inhibition @ 1: at 1 (head μM)
T1 construct: starting from amino acid residue 223 to the end of the protein at residue 509; made in house; host or cells: insect cells
T1 sequence (P06239 223-509 P223M/C224D): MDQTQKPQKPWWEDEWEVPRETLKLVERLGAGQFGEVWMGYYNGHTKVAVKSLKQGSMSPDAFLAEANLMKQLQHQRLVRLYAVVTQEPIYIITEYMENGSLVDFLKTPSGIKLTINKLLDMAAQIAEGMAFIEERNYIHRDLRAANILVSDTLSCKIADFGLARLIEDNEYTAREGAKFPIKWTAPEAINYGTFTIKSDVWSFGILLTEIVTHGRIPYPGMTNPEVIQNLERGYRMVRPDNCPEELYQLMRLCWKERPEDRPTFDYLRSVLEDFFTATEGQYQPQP
Experimental: LCK Construct for Assay: The LCK tyrosine kinase was expressed in insect cells as an N-terminal deletion starting from amino acid residue 223 to the end of the protein at residue 509, with the following two amino acid substitutions at the N-terminus: […] and C224D.
The spectrophotometric assay was carried out as described above for VEGF-R2, except for the following changes in concentration: LCK=60 nM, MgCl2=0 mM, poly(E4Y1)=20 mM.

CDK2/Cyclin A complex = CDK2/Cyclin A complex (Homo sapiens, UniProt P24941); experiment: CDK2/Cyclin A assay; type: biochemical; settings: Table 2
Method in brief: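 Radiometric assay: 150 nM CDK2/cyclin A (insect-cell CDK2, truncated cyclin A) phosphorylates His-tagged Rb fragment (residues 386-928) with 25 μM ATP plus [32P]ATP, pH 7.4 HEPES, 2% DMSO, 30 °C for 20 min. Filter-captured product counted by phosphorimager; apparent Ki from competitive or tight-binding inhibition fits.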

[1] = target: T2, phosphorylated VEGF-R2Δ50 (FLVK-P) (Homo sapiens, UniProt P35968, DEL940-989/E990V); experiment: VEGF-R2 coupled spectrophotometric (FLVK-P) assay; type: biochemical; settings: Table 2; spectrophotometric assay
T2 construct: VEGF-R2Δ50 contains residues 806-939 and 990-1171; made in house; host or cells: baculovirus/insect cells
T2 sequence (P35968 with tags, fused parts or gaps DEL940-989/E990V limits assumed): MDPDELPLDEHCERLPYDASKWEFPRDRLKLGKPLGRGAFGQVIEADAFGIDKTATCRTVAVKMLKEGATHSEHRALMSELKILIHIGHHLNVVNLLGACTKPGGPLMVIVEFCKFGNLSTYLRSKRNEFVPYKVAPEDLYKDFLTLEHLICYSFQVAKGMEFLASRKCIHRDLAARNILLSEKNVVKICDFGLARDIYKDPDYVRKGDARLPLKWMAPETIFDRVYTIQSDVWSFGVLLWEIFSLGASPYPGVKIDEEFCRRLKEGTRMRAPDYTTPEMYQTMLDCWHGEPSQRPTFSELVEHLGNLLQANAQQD
Method in brief: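 Baculovirus-expressed human VEGF-R2Δ50 (residues 806-939/990-1171, E990V) was autophosphorylated with 3 mM ATP, 40 mM MgCl2 for 2 h at 4° C. ADP formation was coupled via PK/LDH to NADH oxidation, read at 340 nm, with 5.1 mM poly(E4Y1), 1 mM ATP, 25 mM MgCl2, Hepes pH 7.5. Ki came from activity across compound concentrations.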

[2] = system: lung cancer cells (line MV522); experiment: Cancer cell proliferation (MV522) assay; type: cell-based; settings: MV522, Table 2

In the case of `COc1cc(Nc2nc(N)c(-c3nc(-c4cccc(O)c4)no3)s2)cc(OC)c1OC` [K(1), 3-{5-[4-Amino-2-(3,4,5-trimethoxy-phenylamino)-thiazol-5-yl]-[1,2,4]oxadiazol-3-yl}-phenol], the “LCK % inhibition @ 1” value (LCK tyrosine kinase) is reported as 42% @, the Ki (CDK2/Cyclin A complex) is reported as 620 nM and the Ki [1] is reported as 6 nM. The IC50 [2] was 5.4 µM.

With `COc1cc(Nc2nc(N)c(-c3nc(-c4cccc(O)c4)cs3)s2)cc(OC)c1OC` [A(17), 3-[4′-Amino-2′-(3,4,5-trimethoxy-phenylamino)-[2,5′]bithiazolyl-4-yl]-phenol] the “LCK % inhibition @ 1” value (LCK tyrosine kinase) was 21% @, the Ki (CDK2/Cyclin A complex) was 2100 nM and the Ki [1] was 3 nM. For the same molecule, the IC50 [2] was over 10 µM.

`CCCNc1nc(N)c(-c2nc(-c3cccc(O)c3)cs2)s1` [A(29), 3-(4′-Amino-2′-propylamino-[2,5′]bithiazolyl-4-yl)-phenol] was tested, and the “LCK % inhibition @ 5” value (LCK tyrosine kinase; at 5 (head μM)) was 10% @, the Ki (CDK2/Cyclin A complex) was 6400 nM and the Ki [1] was 78 nM. It also gave an IC50 [2] of over 10 µM.
